{
  "source": "patent US10053455B2",
  "about": "“Diazaspiroalkaneone-substituted oxazole derivatives as spleen tyrosine kinase inhibitors” (AB SCIENCE, priority 2014, dated 2018)",
  "key": {"Jak2": {"target": "Jak2 (Homo sapiens (Human), UniProt O60674)", "sequence (O60674 whole entry)": "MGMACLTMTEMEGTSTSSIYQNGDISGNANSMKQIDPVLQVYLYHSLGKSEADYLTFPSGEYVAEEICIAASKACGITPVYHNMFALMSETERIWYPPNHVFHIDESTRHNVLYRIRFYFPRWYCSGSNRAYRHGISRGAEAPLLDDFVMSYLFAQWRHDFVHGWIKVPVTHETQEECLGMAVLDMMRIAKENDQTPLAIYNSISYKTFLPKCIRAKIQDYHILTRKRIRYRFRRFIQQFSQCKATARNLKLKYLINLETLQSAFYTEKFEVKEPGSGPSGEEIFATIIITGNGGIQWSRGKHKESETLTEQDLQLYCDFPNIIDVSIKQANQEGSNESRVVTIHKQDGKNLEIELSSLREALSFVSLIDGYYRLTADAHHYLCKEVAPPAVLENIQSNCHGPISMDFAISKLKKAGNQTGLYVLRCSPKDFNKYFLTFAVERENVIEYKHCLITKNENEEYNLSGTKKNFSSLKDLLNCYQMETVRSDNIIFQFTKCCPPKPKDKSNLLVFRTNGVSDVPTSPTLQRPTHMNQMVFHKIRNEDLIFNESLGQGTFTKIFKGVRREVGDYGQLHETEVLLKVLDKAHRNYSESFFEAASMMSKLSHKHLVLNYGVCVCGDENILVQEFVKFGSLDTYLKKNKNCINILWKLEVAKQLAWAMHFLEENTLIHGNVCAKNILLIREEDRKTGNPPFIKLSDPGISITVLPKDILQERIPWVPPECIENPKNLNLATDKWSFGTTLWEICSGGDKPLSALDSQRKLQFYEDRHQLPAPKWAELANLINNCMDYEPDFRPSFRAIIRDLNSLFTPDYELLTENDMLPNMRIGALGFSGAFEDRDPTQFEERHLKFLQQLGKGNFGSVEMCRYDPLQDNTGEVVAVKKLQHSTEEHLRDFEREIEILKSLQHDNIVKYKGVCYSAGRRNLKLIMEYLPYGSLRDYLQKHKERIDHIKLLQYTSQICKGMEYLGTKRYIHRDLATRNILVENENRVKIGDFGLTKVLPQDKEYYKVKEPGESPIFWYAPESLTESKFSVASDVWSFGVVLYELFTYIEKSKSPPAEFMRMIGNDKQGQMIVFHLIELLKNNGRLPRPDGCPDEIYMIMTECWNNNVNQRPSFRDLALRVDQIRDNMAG", "test": "HTRF kinase assay, Jak2", "format": "biochemical", "conditions": "enzymatic determination", "experimental": "(§1) Most of the kinases tested in this study were cloned, expressed and purified in the facilities of the inventors. They were expressed either as N-terminus hexahistidine-, hexahistidine-asparagine- or GST-tagged enzymes in a baculovirus or in a Colibacille expression system. Remaining enzymes (JAKs) were purchased from Millipore or Proqinase. For each enzyme, steady state kinetic parameters were determined and validated with known inhibitors.\n(§2) The analysis of the effect of compounds on kinase activity was assessed with the HTRF® KinEASE assay (Cisbio International), an immuno-assay based on the quantification of the level of phosphorylation of a biotinylated peptide substrate using anti-phospho-specific antibody labeled with Europium (Eu^3+) cryptate. This assay comprises two steps: —an enzymatic step, during which the peptide substrate, the kinase, ATP, Mg^2+ and/or Mn^2+ are incubated with varying concentration of drug (from 0 to 10 μM); —a detection step, at the end of the reaction (stopped by addition of EDTA which chelates Mg^2+), the antibody anti-phospho peptide-Eu^3+ (emission 620 nm) and streptavidin XL-665 (emission 665 nm) are added to the reaction mix. […] Results are expressed in delta fluorescence (DF) unit defined as follow DF %=[(ratio−ratio blank)/(ratio blank)]*100, where ratio=(665 nm/620 nm)*10^4. […]"}, "TNFα": {"tested_on": "TNFα", "test": "FcεRI and Kit-induced TNFα cytokine release in BMMCs", "format": "cell-based, C57BL/6J mice", "experimental": "(§3) Murine bone marrow mast cells (BMMCs) are obtained by flushing bone marrow cells from the femurs of C57BL/6J mice, and then cultured for 3-4 weeks in RPMI containing mouse recombinant IL-3 (30 ng/ml). Cells were sensitized overnight in IL3-depleted culture medium with 0.1-0.2 μg/ml anti-DNP-IgE (Sigma-Aldrich D8406). Cells were preincubated with inhibitors for 30 min, and then stimulated with 10 ng/ml antigen (Ag) and/or Stem Cell Factor (SCF) (30 ng/ml). The cells were incubated for 6 h. The supernatants were harvested, and the cytokine content measured using CISBIO IL6 and TNFα HTRF assay (cat#63ADKEBU043 and 6FMTNPEB respectively)."}, "IL6": {"tested_on": "IL6", "test": "FcεRI and Kit-induced IL6 cytokine release in BMMCs", "format": "cell-based, C57BL/6J mice", "experimental": "as §3"}, "Src": {"target": "Src (Homo sapiens (Human), UniProt P12931)", "sequence (P12931 whole entry, looked up, species assumed)": "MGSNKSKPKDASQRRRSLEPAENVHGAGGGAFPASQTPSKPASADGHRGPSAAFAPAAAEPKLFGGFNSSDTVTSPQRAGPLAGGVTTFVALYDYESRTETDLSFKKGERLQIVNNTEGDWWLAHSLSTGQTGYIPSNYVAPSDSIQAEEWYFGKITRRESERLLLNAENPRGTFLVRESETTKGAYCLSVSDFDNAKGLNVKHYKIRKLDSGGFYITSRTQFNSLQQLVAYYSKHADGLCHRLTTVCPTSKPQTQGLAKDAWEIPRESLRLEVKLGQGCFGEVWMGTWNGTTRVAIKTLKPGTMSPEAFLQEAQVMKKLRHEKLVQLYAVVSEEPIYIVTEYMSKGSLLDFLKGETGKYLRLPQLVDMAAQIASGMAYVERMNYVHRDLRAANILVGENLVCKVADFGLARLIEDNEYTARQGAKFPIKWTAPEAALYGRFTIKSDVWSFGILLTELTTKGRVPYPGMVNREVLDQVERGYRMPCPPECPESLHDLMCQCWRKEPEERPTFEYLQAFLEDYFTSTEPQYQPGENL", "test": "HTRF kinase assay, Src", "format": "biochemical", "conditions": "enzymatic determination", "experimental": "as §1, §2"}, "[1]": {"test": "Early bioavailability determination (plasma PK)", "format": "in vivo, Sprague Dawley rats", "conditions": "rat; for AUC: read-out: AUC24", "experimental": "Early screen was conducted to estimate plasma concentrations of test compounds obtained after oral or intravenous administration to Sprague Dawley rats. DMSO was used as vehicle for oral and intravenous administration. In short, 4 male Sprague Dawley rats around 5 weeks old were used. Drugs were administered PO (10 mg/kg) or IV (2 mg/kg). Blood samples were collected at defined time schedule and analysed using LC-MS/MS determination for PK parameters calculations."}, "[2]": {"tested_on": "Salmonella typhimurium strain TA98", "test": "AMES mutagenic assay, TA98 strain", "experimental": "Mutagenic activity of test compounds and their metabolites (produced by rat liver S9 fraction) was evaluated in the Salmonella typhimurium strains TA100 and TA98 according to the Ames assay (Toxicology in vitro, (2001), 15: 105-114). […] The results are expressed as a mutagenicity ratio in comparison to solvent controls.\nThe results are expressed as a ratio of the number of colonies over the number of colonies in the negative control (DMSO)."}, "[3]": {"conditions": "male, Sprague Dawley, plasma, IV, 2 mg/kg, mean"}, "[4]": {"conditions": "male, Sprague Dawley, plasma, PO, 10 mg/kg, mean"}, "[5]": {"conditions": "TA98, absence of S-9, 0.5 μg per well"}, "[6]": {"conditions": "TA98, absence of S-9, 1.4 μg per well"}, "[7]": {"conditions": "TA98, absence of S-9, 4.1 μg per well"}, "[8]": {"conditions": "TA98, absence of S-9, 12.3 μg per well"}, "[9]": {"conditions": "TA98, absence of S-9, 37 μg per well"}, "[10]": {"conditions": "TA98, absence of S-9, 111.1 μg per well"}, "[11]": {"conditions": "TA98, absence of S-9, 333.3 μg per well"}, "[12]": {"conditions": "TA98, absence of S-9, 1000 μg per well"}, "[13]": {"conditions": "TA98, presence of S-9, 0.5 μg per well"}, "[14]": {"conditions": "TA98, presence of S-9, 1.4 μg per well"}, "[15]": {"conditions": "TA98, presence of S-9, 4.1 μg per well"}, "[16]": {"conditions": "TA98, presence of S-9, 12.3 μg per well"}, "[17]": {"conditions": "TA98, presence of S-9, 37 μg per well"}, "[18]": {"conditions": "TA98, presence of S-9, 111.1 μg per well"}, "[19]": {"conditions": "TA98, presence of S-9, 333.3 μg per well"}, "[20]": {"conditions": "TA98, presence of S-9, 1000 μg per well"}},
  "note": "Like-named read-outs stand apart in the source and are kept apart here.",
  "data": [
    {"compound": "Cc1ccnc(Nc2cccc(-c3cnc(N4CCNC(=O)C45CC5)o3)c2)n1", "note": "[Compound 001, 4-{5-[3-(4-Methyl-pyrimidin-2-ylamino)-phenyl]-oxazol-2-yl}-4,7-diaza-spiro[2.5]octan-8-one]", "values": [
      {"measurement": "IC50", "setting": "Jak2; read-out: Jak2 IC50", "result": 900, "unit": "nM"},
      {"measurement": "IC50", "setting": "Jak2; read-out: Kinase activity profile IC50 JAK 2", "result": 920, "unit": "nM"},
      {"measurement": "TNFα Cytokine Release (% relative to control Ag + SCF)", "setting": "TNFα; Ag + SCF + 0.01 μM of compound", "result": 95, "unit": "%"},
      {"measurement": "TNFα Cytokine Release (Relative Fluorescence Units)", "setting": "TNFα; Ag + SCF + 0.01 μM of compound", "result": "468 Relative Fluorescence Units"},
      {"measurement": "TNFα Cytokine Release (% relative to control Ag + SCF)", "setting": "TNFα; Ag + SCF + 0.1 μM of compound", "result": 32, "unit": "%"},
      {"measurement": "TNFα Cytokine Release (Relative Fluorescence Units)", "setting": "TNFα; Ag + SCF + 0.1 μM of compound", "result": "158 Relative Fluorescence Units"},
      {"measurement": "TNFα Cytokine Release (% relative to control Ag + SCF)", "setting": "TNFα; Ag + SCF + 1 μM of compound", "result": 2, "unit": "%"},
      {"measurement": "TNFα Cytokine Release (Relative Fluorescence Units)", "setting": "TNFα; Ag + SCF + 1 μM of compound", "result": "9.5 Relative Fluorescence Units"},
      {"measurement": "IC50", "setting": "TNFα; Mus musculus, BMMC, Ag + SCF stimulated BMMCs", "result": "~50", "unit": "nM"},
      {"measurement": "IL6 Cytokine Release (% relative to control Ag + SCF)", "setting": "IL6; Ag + SCF + 0.01 μM of compound", "result": 89, "unit": "%"},
      {"measurement": "IL6 Cytokine Release (Relative Fluorescence Units)", "setting": "IL6; Ag + SCF + 0.01 μM of compound", "result": "756.5 Relative Fluorescence Units"},
      {"measurement": "IL6 Cytokine Release (% relative to control Ag + SCF)", "setting": "IL6; Ag + SCF + 0.1 μM of compound", "result": 29, "unit": "%"},
      {"measurement": "IL6 Cytokine Release (Relative Fluorescence Units)", "setting": "IL6; Ag + SCF + 0.1 μM of compound", "result": "249 Relative Fluorescence Units"},
      {"measurement": "IL6 Cytokine Release (% relative to control Ag + SCF)", "setting": "IL6; Ag + SCF + 1 μM of compound", "result": 6, "unit": "%"},
      {"measurement": "IL6 Cytokine Release (Relative Fluorescence Units)", "setting": "IL6; Ag + SCF + 1 μM of compound", "result": "54 Relative Fluorescence Units"},
      {"measurement": "IC50", "setting": "IL6; Mus musculus, BMMC, Ag + SCF stimulated BMMCs, read-out: IL-6 release IC50", "result": "~50", "unit": "nM"},
      {"measurement": "IC50", "setting": "Src", "result": 2600, "unit": "nM"},
      {"measurement": "Cl", "setting": "[1]; PO, 10 mg/kg, mean", "result": 17, "unit": "mL/min/kg"},
      {"measurement": "Vd", "setting": "[1]; PO, 10 mg/kg, mean", "result": 2.9, "unit": "L/kg"},
      {"measurement": "Cmax", "setting": "[1]; [3]", "result": 869, "unit": "ng/mL"},
      {"measurement": "Tmax", "setting": "[1]; [3]", "result": 0.083, "unit": "h"},
      {"measurement": "clearance", "setting": "[1]; [3]", "result": 15, "unit": "mL/min/kg"},
      {"measurement": "half-life", "setting": "[1]; [3]", "result": 0.6, "unit": "h"},
      {"measurement": "AUC", "setting": "[1]; [3]", "result": 1060, "unit": "ng·h/mL"},
      {"measurement": "Vd", "setting": "[1]; male, Sprague Dawley, plasma, IV, 2 mg/kg, mean, read-out: Vd", "result": 0.9, "unit": "L/kg"},
      {"measurement": "bioavailability", "setting": "[1]; male, Sprague Dawley, plasma, PO 10 mg/kg vs IV 2 mg/kg, read-out: F24 (absolute bioavailability)", "result": 97.5, "unit": "%"},
      {"measurement": "Cmax", "setting": "[1]; [4]", "result": 122, "unit": "ng/mL"},
      {"measurement": "Tmax", "setting": "[1]; [4]", "result": 3, "unit": "h"},
      {"measurement": "half-life", "setting": "[1]; [4]", "result": 2.1, "unit": "h"},
      {"measurement": "AUC", "setting": "[1]; [4]", "result": 1030, "unit": "ng·h/mL"},
      {"measurement": "Mean revertant colony counts", "setting": "[2]; [5]", "result": 7.3},
      {"measurement": "Ratio treated/solvent", "setting": "[2]; [5]", "result": 1.7},
      {"measurement": "Mean revertant colony counts", "setting": "[2]; [6]", "result": 4.3},
      {"measurement": "Ratio treated/solvent", "setting": "[2]; [6]", "result": 1.0},
      {"measurement": "Mean revertant colony counts", "setting": "[2]; [7]", "result": 6.3},
      {"measurement": "Ratio treated/solvent", "setting": "[2]; [7]", "result": 1.5},
      {"measurement": "Mean revertant colony counts", "setting": "[2]; [8]", "result": 5.3},
      {"measurement": "Ratio treated/solvent", "setting": "[2]; [8]", "result": 1.2},
      {"measurement": "Mean revertant colony counts", "setting": "[2]; [9]", "result": 8.3},
      {"measurement": "Ratio treated/solvent", "setting": "[2]; [9]", "result": 1.9},
      {"measurement": "Mean revertant colony counts", "setting": "[2]; [10]", "result": 6.3},
      {"measurement": "Ratio treated/solvent", "setting": "[2]; [10]", "result": 1.5},
      {"measurement": "Mean revertant colony counts", "setting": "[2]; [11]", "result": 4.3},
      {"measurement": "Ratio treated/solvent", "setting": "[2]; [11]", "result": 1.0},
      {"measurement": "Mean revertant colony counts", "setting": "[2]; [12]", "result": 3.7},
      {"measurement": "Ratio treated/solvent", "setting": "[2]; [12]", "result": 0.8},
      {"measurement": "Mean revertant colony counts", "setting": "[2]; [13]", "result": 10.3},
      {"measurement": "Ratio treated/solvent", "setting": "[2]; [13]", "result": 3.9},
      {"measurement": "Mean revertant colony counts", "setting": "[2]; [14]", "result": 7.3},
      {"measurement": "Ratio treated/solvent", "setting": "[2]; [14]", "result": 2.8},
      {"measurement": "Mean revertant colony counts", "setting": "[2]; [15]", "result": 9.3},
      {"measurement": "Ratio treated/solvent", "setting": "[2]; [15]", "result": 3.5},
      {"measurement": "Mean revertant colony counts", "setting": "[2]; [16]", "result": 6.7},
      {"measurement": "Ratio treated/solvent", "setting": "[2]; [16]", "result": 2.5},
      {"measurement": "Mean revertant colony counts", "setting": "[2]; [17]", "result": 5.7},
      {"measurement": "Ratio treated/solvent", "setting": "[2]; [17]", "result": 2.1},
      {"measurement": "Mean revertant colony counts", "setting": "[2]; [18]", "result": 7.3},
      {"measurement": "Ratio treated/solvent", "setting": "[2]; [18]", "result": 2.8},
      {"measurement": "Mean revertant colony counts", "setting": "[2]; [19]", "result": 6.3},
      {"measurement": "Ratio treated/solvent", "setting": "[2]; [19]", "result": 2.4},
      {"measurement": "Mean revertant colony counts", "setting": "[2]; [20]", "result": 5.0},
      {"measurement": "Ratio treated/solvent", "setting": "[2]; [20]", "result": 1.9},
      {"measurement": "mutagenic activity", "setting": "[2]; TA98, with or without liver metabolic activation system (S9 mix)", "result": "did not show any mutagenic activity"}
    ]}
  ]
}
